This experiment relates to Collagen-immunized DBA/I mice. As to the kind of experiment: collagen-induced arthritis (CIA), frequency and severity of RA symptoms. Type of experiment: in vivo. As to the method:
The anti-RA efficacy of SP1018R (200 μl of F127 and L61 in a ratio of 8:1 at a concentration of 2.25% ) was compared to that of MTX that was given at a human equivalent dose (0.1 mg/kg i.v.), both drugs were given on day 30 and day 37 after the first immunization with collagen. For induction of severe CIA, mice were primed with 500 μl pristane and immunized at day 14 and 21 by administration of 100 μg colagen type II in Freund's complete adjuvant. The control (placebo) and the treated animals were evaluated for RA severity. RA was graded semi-quantitatively on a scale of 0-4 for each paw: 0=no changes; 0.5=significant swelling and redness on one digit; 1=swelling and erythema of 2 digits; 2=mild swelling and erythema of the limb or swelling of more than 2 digits; 3=marked swelling and erythema of the limb; and 4=maximal swelling and redness of the limb and later, ankylosis. […] Rev. Immunol.
The data shown below represent the maximal frequency (%) of animals having developed symptoms of RA and the frequency of animals still having the symptoms of RA at the end of the study. All Pluronics used in all examples were purchased from BASF Co.
Frequency of RA development at various time points during the course of RA development

Where [1] appears, read: Study NG256, given twice (2X; day 30 and day 37).

In the case of `CN(Cc1cnc2nc(N)nc(N)c2n1)c1ccc(C(=O)N[C@@H](CCC(=O)O)C(=O)O)cc1` [MTX, methotrexate], where the note is “SP1018R 200 μl, MTX 0.1 mg/kg i.v., day 30 and day 37 after first immunization”, the “RA severity, clinical disease symptoms (scale of 0-4 for each paw)” value is given as “slight therapeutic effect”. In addition, under setting [1], the “frequency of animals still having the symptoms of RA at the end of the study” value was 100% and the “maximal frequency (%) of animals having developed symptoms of RA” value is given as “MTX—100%”.

For the origin of these results see US6656459B2, “Compositions of non-ionic block copolymers to treat autoimmune and inflammatory diseases, and to reduce graft/implantation, and methods of use thereof” (priority 2000, dated 2003).
